According to patent US20030039580A1, “Stable preservative formulations comprising halopropynyl compounds and butoxydiglycol solvent” (Lonza Inc., priority 2001, published 2003):

Experiments:
[1] = tested on: Burkholderia cepacia; assay: Minimum inhibitory concentration, IPBC and butoxydiglycol in protein shampoo (Example 4); type: cell-based
Method: Sample protein shampoos I, J and K were formed. Sample I contained only IPBC. Sample J contained only butoxydiglycol. Sample K contained both IPBC and butoxydiglycol. […] Synergism for the IPBC/butoxydiglycol studies in Table 5 was calculated by the method described in C. E. Kull et al., “Mixtures of Quaternary Ammonium Compounds and Long-Chain Fatty Acids as Antifungal Agents”, Applied Microbiology, 4:538-541(1961). The Kull method determines the quantity of each component in a mixture which is required to reach a given microbiological endpoint (e.g., MIC), and compares that amount with the quantity of the pure component necessary to reach the same endpoint. According to this method, a synergism index or value QA/QB+Qa/Qb is determined, wherein: […]

[2] = tested on: mixed bacteria, comprising E. coli (ATCC 8739), P. aeruginosa (ATCC 9027), and S. aureus (ATCC 6538); assay: Inhibition of mixed bacteria by propynyl compound solutions in protein shampoo (Example 2); type: cell-based; conditions: Table 3, 500 ppm in protein shampoo (GPL 1000 ppm), solvent butoxydiglycol (A, E) or butylene glycol (B, C, D)
Method: (§1) Each of the samples A to E is a protein shampoo comprising a propynyl compound. The samples were tested for antibacterial and antifungal properties by testing for inhibition of a mixed bacteria, comprising E. coli (ATCC 8739), P. aeruginosa (ATCC 9027), and S. aureus (ATCC 6538), and inhibition of a mixed fungi, comprising A. niger (ATCC 16404) and C. albicans (ATCC 10231).
(§2) The samples “GPL” and “NP” are controls. “GPL” is 0. 1% Glydantg Plus, a liquid antimicrobial preservative available from Lonza Inc., Fair Lawn, N.J., containing a dimethyol dimethyl hydantoin formaldehyde donor. Glydant® Plus is used in personal care formulations in cosmetics and personal care products.
(§3) In Table 3, samples A and E consist of an iodopropynyl compound in a butoxydiglycol solvent. Samples C and D consist of an iodopropynyl compound in a butylene glycol solvent, and Sample B consists of a propynyl compound in a butylene glycol solvent.

[3] = tested on: Bacteria; assay: Antibacterial screening of propynyl compositions in protein shampoo formulations (Example 3); type: cell-based; conditions: Table 4, 500 ppm in protein shampoo pH 7.0 (GPL 1000 ppm), solvent butoxydiglycol (A, H) or butylene glycol (F, G)
Text: (§4) Samples of a standard protein shampoo (pH-7.0) were formed. The shampoo contained the following preservative-free ingredients, w/w % Samples A, […] and H contained active preservative iodopropynyl agents in a solvent. Samples A and H contained butoxydiglycol as the solvent. Samples F and G (containing a propynyl compound rather than a halopropynyl compound) contained butylene glycol as the solvent.

[4] = tested on: Fungi; assay: Antifungal screening of propynyl compositions in protein shampoo formulations (Example 3); type: cell-based; conditions: Table 4, 500 ppm in protein shampoo pH 7.0 (GPL 1000 ppm), solvent butoxydiglycol (A, H) or butylene glycol (F, G)
Text: as §4

[5] = Solubility testing of propynyl compounds in solvents; type: physicochemical; conditions: for Solubility in Butanediol Anhydrous: solvent Butanediol Anhydrous; for Solubility in Butoxydiglycol: solvent Butoxydiglycol; for Solubility in Sorbitol: solvent Sorbitol
Text: The compounds used in Example 1 are identified below in Table 1. The results of the solubility testing is shown below in Table 2.

[6] = tested on: mixed fungi, comprising A. niger (ATCC 16404) and C. albicans (ATCC 10231); assay: Inhibition of mixed fungi by propynyl compound solutions in protein shampoo (Example 2); type: cell-based; conditions: Table 3, 500 ppm in protein shampoo (GPL 1000 ppm), solvent butoxydiglycol (A, E) or butylene glycol (B, C, D)
Method: as §1, §2, §3

SMILES | MIC ([1]; Burkholderia cepacia, single active alone in protein shampoo, complete inhibition of growth, read-out: MIC, ppm active) [mg/mL] | Concentration (ppm) QB ([1]; Table 6, parameter MIC) | DAY 0 Bacteria (cfu/ml) [2] | DAY 14 Bacteria (cfu/ml) [2] | DAY 28 Bacteria (cfu/ml) [2] | DAY 0 Bacteria (cfu/ml) [3] | DAY 14 Bacteria (cfu/ml) [3] | DAY 28 Bacteria (cfu/ml) [3] [cfu/ml] | DAY 0 Fungi (cfu/ml) [4] | DAY 14 Fungi (cfu/ml) [4] | DAY 28 Fungi (cfu/ml) [4] [cfu/ml] | Solubility in Butanediol Anhydrous [5] | Solubility in Butoxydiglycol [5] | DAY 0 Fungi (cfu/ml) [6] | DAY 14 Fungi (cfu/ml) [6] [cfu/ml] | DAY 28 Fungi (cfu/ml) [6] | Solubility in Sorbitol [5] | Concentration (ppm) QA ([1]; Table 6, parameter MIC) | MIC, ppm active ([1]; single active alone in protein shampoo, complete inhibition of growth)
CCCCOCCOCCO [Butoxydiglycol, 2-(2-butoxyethoxy)ethanol] | 12.5 | 12,500 ppm |  |  |  |  |  |  |  |  |  |  |  |  |  |  |  |  | 
O=c1c(Cl)cn(CC#CI)c(=O)n1CC#CI [Compound L58, 1N,3N-Diiodopropyn-2-yl-5-chlorouracil] |  |  | 8.00 × 10^6 cfu/ml | <10 cfu/ml | <10 cfu/ml | 9.00 × 10^6 cfu/ml | <10 cfu/ml | <10 | 1.00 × 10^5 cfu/ml | <10 cfu/ml | <10 | − | + | 1.00 × 10^5 cfu/ml | <10 | <10 cfu/ml |  |  | 
O=C(C#CI)c1ccc(C(F)(F)F)cc1 [Compound L74, 3-iodo-1-(4-trifluoromethylphenyl)-2-propyn-1-one] |  |  | 8.00 × 10^6 cfu/ml | >3.0 × 10^3 cfu/ml | >10^3 cfu/ml |  |  |  |  |  |  | + | + | 1.00 × 10^5 cfu/ml | <10 | >10^3 cfu/ml |  |  | 
OC(C#CI)c1cccs1 (centres unmarked) [Compound L90, 2-(3-iodo-2-propyn-1-ol-yl) thiophene] |  |  | 7.00 × 10^6 cfu/ml | >3.0 × 10^3 cfu/ml | >10^3 cfu/ml |  |  |  |  |  |  | + | + | 1.00 × 10^5 cfu/ml | <10 | >10^3 cfu/ml | − |  | 
OC(C#CI)c1ccc(Cl)s1 (centres unmarked) [Compound L100] |  |  |  |  |  | 8.00 × 10^6 cfu/ml | 2.00 × 10^1 cfu/ml | 200 | 1.00 × 10^5 cfu/ml | <10 cfu/ml | <10 |  |  |  |  |  |  |  | 
Cc1ccc(C(Cn2ccnc2)OCC#CI)cc1 (centres unmarked) [Compound L103, 2-(1-imidazolyl)-1-(4-methylphenyl)ethyl iodopropargyl ether] |  |  | 7.00 × 10^6 cfu/ml | <10 cfu/ml | <10 cfu/ml |  |  |  |  |  |  | − | + | 1.00 × 10^5 cfu/ml | 500 | 400 cfu/ml | − |  | 
C#CC(=O)c1ccc(C#N)cc1 [Compound L106, 1-(4-cyanophenyl)-2-propyn-1-one] |  |  |  |  |  | 8.00 × 10^6 cfu/ml | >1.0 × 10^4 cfu/ml | <10 | 1.00 × 10^5 cfu/ml | >1.0 × 10^3 cfu/ml | 100 | + | + |  |  |  | − |  | 
O=C(O)CCOCC#CI [Compound L111, Iodopropynyloxypropionic Acid] |  |  |  |  |  | 8.00 × 10^6 cfu/ml | <10 cfu/ml | <10 | 8.00 × 10^6 cfu/ml | <10 cfu/ml | <10 |  |  |  |  |  |  |  | 
CCCCNC(=O)OCC#CI [IPBC, 3-iodo-2-propynyl butyl carbamate] |  |  |  |  |  |  |  |  |  |  |  |  |  |  |  |  |  | 1,250 ppm | 1,250 ppm
